Data set [1] is described as follows: xn = mol fraction of the nth substance listed. The note with it: 96 kPa, Liquid, Pycnometric method, x2 = 0.
The conditions of data set [2]: 96 kPa, Liquid, Pycnometric method.

SMILES strings stand for the structures. ± gives the expanded uncertainty stated by the source.

Mass density data for three molecules are collected here from the NIST ThermoML archive (doi:10.1016/j.jct.2018.03.017).

As usually defined, the mass density is mass per unit of volume. For the molecule `OCC(O)CO` [glycerol] + C1CCC2=NCCCN2CC1, the mass density stood at 1262.7 ± 8.2 kg/m3 in data set [1] (288.15 K); 1260.5 ± 8.2 kg/m3 in data set [1] (293.15 K); 1257.2 ± 8.2 kg/m3 in data set [1] (298.15 K); 1254.8 ± 8.2 kg/m3 in data set [1] (303.15 K); 1251.5 ± 8.2 kg/m3 in data set [1] (308.15 K); 1248.9 ± 8.2 kg/m3 in data set [1] (313.15 K). The values for the mass density in data set [1] (318.15 K), in data set [1] (323.15 K) and in data set [1] (328.15 K) were 1246 ± 8.2 kg/m3, 1242.4 ± 8.2 kg/m3 and 1240.5 ± 8.2 kg/m3, respectively.

Consider `OCC(O)CO` [glycerol], for which the mass density in data set [2] (288.15 K) is recorded as 1262.7 ± 8.2 kg/m3; in data set [2] (293.15 K), 1260.5 ± 8.2 kg/m3; in data set [2] (298.15 K), 1257.2 ± 8.2 kg/m3; in data set [2] (303.15 K) it was 1254.8 ± 8.2 kg/m3; in data set [2] (308.15 K), 1251.5 ± 8.2 kg/m3; in data set [2] (313.15 K) it was 1248.9 ± 8.2 kg/m3. Further, the mass density stood at 1246 ± 8.2 kg/m3 in data set [2] (318.15 K), 1242.4 ± 8.2 kg/m3 in data set [2] (323.15 K) and 1240.5 ± 8.2 kg/m3 in data set [2] (328.15 K).

`C1CCC2=NCCCN2CC1` [1,8-diaza-7-bicyclo[5.4.0]undecene]: the mass density in data set [2] (288.15 K) is on record as 1020.6 ± 8.2 kg/m3; in data set [2] (293.15 K), 1017.1 ± 8.2 kg/m3; in data set [2] (298.15 K) it was 1014.1 ± 8.2 kg/m3; in data set [2] (303.15 K) it was 1010.9 ± 8.2 kg/m3; in data set [2] (308.15 K) it was 1007.4 ± 8.2 kg/m3; in data set [2] (313.15 K), 1004.6 ± 8.2 kg/m3. For the same molecule, the mass density in data set [2] (318.15 K) was determined as 1000.8 ± 8.2 kg/m3; in data set [2] (323.15 K) it was 998.4 ± 8.2 kg/m3; in data set [2] (328.15 K) it was 994.2 ± 8.2 kg/m3.
